Results as given in PubChem BioAssay AID1963853 (Molecular Pharmacology Branch, DTP, NCI, 2024).
“And” between values parts separate entries of the source, which are not always exact repeats. Equal entries are not always repeated.

Test system: 266295-075-R-J1-PDC spheroid viability
Assay: Anticancer human tumor 266295-075-R-J1-PDC patient-derived head and neck squamous carcinoma cell line growth inhibition [POLQ]
Conditions: spheroids with HUVEC and MSC; for viability, T/C: stronger effect = lower value
How it was run: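 PDC + HUVEC + MSC complex spheroids; POLQ inhibitors ± partner drugs; top conc. at/near clinical Cmax, else 10 microM (SN-38 1 microM), half-log dilutions; 37 degrees C, 5% CO2.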
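Also: spheroids exposed to compounds for seven days before readout.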

CC1COCCN1c1cc(C2(O)CC3CCC(C2)O3)c2cnn(-c3ccn[nH]3)c2n1 (centres undefined) + Nc1ccc(C#CCN(C(=O)Cc2ncc(C(F)(F)F)cc2C(F)(F)F)c2ccc(F)cc2)nn1
IC50 (curve of first compound, second compound 0.0316 µM): 0.996 µM
IC50 (curve of first compound, second compound 0.1 µM): 0.591 µM
IC50 (curve of first compound, second compound 0.316 µM): 0.324 µM
IC50 (curve of first compound, second compound 1 µM): 0.903 µM
IC50 (curve of first compound, second compound 3.16 µM): 0.831 µM
IC50 (curve of first compound, second compound 10 µM): 0.706 µM
viability, T/C (second compound 0.0316 µM, first compound 0.0316 µM): 80.4%
viability, T/C (second compound 0.0316 µM, first compound 0.1 µM): 112%
viability, T/C (second compound 0.0316 µM, first compound 0.316 µM): 67.6%
viability, T/C (second compound 0.0316 µM, first compound 1 µM): 54.4%
viability, T/C (second compound 0.0316 µM, first compound 3.16 µM): 42.5%
viability, T/C (second compound 0.0316 µM, first compound 10 µM): 32.3%
viability, T/C (second compound 0.1 µM, first compound 0.0316 µM): 96.9%
viability, T/C (second compound 0.1 µM, first compound 0.1 µM): 85.9%
viability, T/C (second compound 0.1 µM, first compound 0.316 µM): 53.5%
viability, T/C (second compound 0.1 µM, first compound 1 µM): 46.6%
viability, T/C (second compound 0.1 µM, first compound 3.16 µM): 39.2%
viability, T/C (second compound 0.1 µM, first compound 10 µM): 29.9%
viability, T/C (second compound 0.316 µM, first compound 0.0316 µM): 94.9%
viability, T/C (second compound 0.316 µM, first compound 0.1 µM): 100%
viability, T/C (second compound 0.316 µM, first compound 0.316 µM): 50.2%
viability, T/C (second compound 0.316 µM, first compound 1 µM): 51.2%
viability, T/C (second compound 0.316 µM, first compound 3.16 µM): 38.3%
viability, T/C (second compound 0.316 µM, first compound 10 µM): 26.9%
viability, T/C (second compound 1 µM, first compound 0.0316 µM): 86.2%
viability, T/C (second compound 1 µM, first compound 0.1 µM): 66.3%
viability, T/C (second compound 1 µM, first compound 0.316 µM): 63.1%
viability, T/C (second compound 1 µM, first compound 1 µM): 46.9%
viability, T/C (second compound 1 µM, first compound 3.16 µM): 42.5%
viability, T/C (second compound 1 µM, first compound 10 µM): 25.7%
viability, T/C (second compound 3.16 µM, first compound 0.0316 µM): 83.9%
viability, T/C (second compound 3.16 µM, first compound 0.1 µM): 84.1%
viability, T/C (second compound 3.16 µM, first compound 0.316 µM): 63.7%
viability, T/C (second compound 3.16 µM, first compound 1 µM): 46.8%
viability, T/C (second compound 3.16 µM, first compound 3.16 µM): 36.8%
viability, T/C (second compound 3.16 µM, first compound 10 µM): 27.8%
viability, T/C (second compound 10 µM, first compound 0.0316 µM): 78.4%
viability, T/C (second compound 10 µM, first compound 0.1 µM): 75.7%
viability, T/C (second compound 10 µM, first compound 0.316 µM): 69.8%
viability, T/C (second compound 10 µM, first compound 1 µM): 41.2%
viability, T/C (second compound 10 µM, first compound 3.16 µM): 30.2%
viability, T/C (second compound 10 µM, first compound 10 µM): 26.7%

CC[C@@]1(O)C(=O)OCc2c1cc1n(c2=O)Cc2cc3c(CN(C)C)c(O)ccc3nc2-1
viability, T/C (compound 0.000316 µM): 80.3% and 92.4% and 96.2%
viability, T/C (compound 0.001 µM): 96.8% and 98.5% and 96.1%
viability, T/C (compound 0.00316 µM): 80.3% and 78.6% and 92.5%
viability, T/C (compound 0.01 µM): 80.8% and 95.8% and 96.8%
viability, T/C (compound 0.0316 µM): 89.2% and 93.9% and 103%
viability, T/C (compound 0.1 µM): 82.4% and 82.3% and 87.1%
IC50 (curve of compound): > 0.1 µM
